Test results from ChEMBL document CHEMBL3046257, “Response of sweet maize (Zea mays L.) hybrids to halosulfuron” (Crop Prot, 2008).

Assays:
Assay type in all cases: organism-based
[1] = test system: Zea mays; test: Toxicity in Zea mays GH2298 (maize) assessed as visible injury at 50 g ai/ha applied shortly post-emergence at three to five-leaf stage using backpack sprayer measured after 14 days; settings: in vivo, other, 336 h
[2] = test system: Zea mays; test: Toxicity in Zea mays GG214 (maize) assessed as plant height at 25 g ai/ha applied shortly post-emergence at three to five-leaf stage using backpack sprayer measured after 21 days (Rvb =81 cm); settings: in vivo, other, 504 h
[3] = test system: Zea mays; test: Toxicity in Zea mays GSS9299 (maize) assessed as visible injury at 50 g ai/ha applied shortly post-emergence at three to five-leaf stage using backpack sprayer measured after 28 days; settings: in vivo, other, 672 h
[4] = test system: Zea mays; test: Toxicity in Zea mays GH2547 (maize) assessed as visible injury at 25 g ai/ha applied shortly post-emergence at three to five-leaf stage using backpack sprayer measured after 28 days; settings: in vivo, other, 672 h
[5] = test system: Zea mays; test: Toxicity in Zea mays GSS9299 (maize) assessed as visible injury at 25 g ai/ha applied shortly post-emergence at three to five-leaf stage using backpack sprayer measured after 7 days; settings: in vivo, other, 168 h
[6] = test system: Zea mays; test: Toxicity in Zea mays GG214 (maize) assessed as plant height at 50 g ai/ha applied shortly post-emergence at three to five-leaf stage using backpack sprayer measured after 21 days (Rvb =81 cm); settings: in vivo, other, 504 h
[7] = test system: Zea mays; test: Toxicity in Zea mays GH2041 (maize) assessed as cob size at 50 g ai/ha applied shortly post-emergence at three to five-leaf stage using backpack sprayer (reference value: 285 g); settings: in vivo, other
[8] = test system: Zea mays; test: Toxicity in Zea mays GH2298 (maize) assessed as marketable yield at 50 g ai/ha applied shortly post-emergence at three to five-leaf stage using backpack sprayer (reference value: 16.9 T/ha ); settings: in vivo, other
[9] = test system: Zea mays; test: Toxicity in Zea mays GSS9299 (maize) assessed as marketable yield at 25 g ai/ha applied shortly post-emergence at three to five-leaf stage using backpack sprayer (reference value: 13.2 T/ha ); settings: in vivo, other
[10] = test system: Zea mays; test: Toxicity in Zea mays GH2298 (maize) assessed as cob size at 25 g ai/ha applied shortly post-emergence at three to five-leaf stage using backpack sprayer (reference value: 307 g); settings: in vivo, other
[11] = test system: Zea mays; test: Toxicity in Zea mays GG214 (maize) assessed as marketable yield at 50 g ai/ha applied shortly post-emergence at three to five-leaf stage using backpack sprayer (reference value: 14.2 T/ha ); settings: in vivo, other
[12] = test system: Zea mays; test: Toxicity in Zea mays GH2041 (maize) assessed as visible injury at 50 g ai/ha applied shortly post-emergence at three to five-leaf stage using backpack sprayer measured after 7 days; settings: in vivo, other, 168 h
[13] = test system: Zea mays; test: Toxicity in Zea mays Empire (maize) assessed as plant height at 25 g ai/ha applied shortly post-emergence at three to five-leaf stage using backpack sprayer measured after 21 days (Rvb =73 cm); settings: in vivo, other, 504 h
[14] = test system: Zea mays; test: Toxicity in Zea mays GSS9299 (maize) assessed as visible injury at 25 g ai/ha applied shortly post-emergence at three to five-leaf stage using backpack sprayer measured after 14 days; settings: in vivo, other, 336 h
[15] = test system: Zea mays; test: Toxicity in Zea mays GG214 (maize) assessed as visible injury at 25 g ai/ha applied shortly post-emergence at three to five-leaf stage using backpack sprayer measured after 28 days; settings: in vivo, other, 672 h
[16] = test system: Zea mays; test: Toxicity in Zea mays GG446 (maize) assessed as visible injury at 25 g ai/ha applied shortly post-emergence at three to five-leaf stage using backpack sprayer measured after 14 days; settings: in vivo, other, 336 h
[17] = test system: Zea mays; test: Toxicity in Zea mays GH2547 (maize) assessed as cob size at 25 g ai/ha applied shortly post-emergence at three to five-leaf stage using backpack sprayer (reference value: 315 g); settings: in vivo, other
[18] = test system: Zea mays; test: Toxicity in Zea mays GH2298 (maize) assessed as visible injury at 25 g ai/ha applied shortly post-emergence at three to five-leaf stage using backpack sprayer measured after 14 days; settings: in vivo, other, 336 h
[19] = test system: Zea mays; test: Toxicity in Zea mays GH2041 (maize) assessed as marketable yield at 50 g ai/ha applied shortly post-emergence at three to five-leaf stage using backpack sprayer (reference value: 12.2 T/ha ); settings: in vivo, other
[20] = test system: Zea mays; test: Toxicity in Zea mays GH2298 (maize) assessed as visible injury at 25 g ai/ha applied shortly post-emergence at three to five-leaf stage using backpack sprayer measured after 7 days; settings: in vivo, other, 168 h
[21] = test system: Zea mays; test: Toxicity in Zea mays GH2041 (maize) assessed as plant height at 50 g ai/ha applied shortly post-emergence at three to five-leaf stage using backpack sprayer measured after 21 days (Rvb =80 cm); settings: in vivo, other, 504 h
[22] = test system: Zea mays; test: Toxicity in Zea mays Empire (maize) assessed as visible injury at 50 g ai/ha applied shortly post-emergence at three to five-leaf stage using backpack sprayer measured after 7 days; settings: in vivo, other, 168 h
[23] = test system: Zea mays; test: Toxicity in Zea mays GSS9299 (maize) assessed as cob size at 25 g ai/ha applied shortly post-emergence at three to five-leaf stage using backpack sprayer (reference value: 292 g); settings: in vivo, other
[24] = test system: Zea mays; test: Toxicity in Zea mays GH2041 (maize) assessed as cob size at 25 g ai/ha applied shortly post-emergence at three to five-leaf stage using backpack sprayer (reference value: 285 g); settings: in vivo, other
[25] = test system: Zea mays; test: Toxicity in Zea mays GG446 (maize) assessed as cob size at 50 g ai/ha applied shortly post-emergence at three to five-leaf stage using backpack sprayer (reference value: 379 g); settings: in vivo, other
[26] = test system: Zea mays; test: Toxicity in Zea mays GH2041 (maize) assessed as visible injury at 25 g ai/ha applied shortly post-emergence at three to five-leaf stage using backpack sprayer measured after 14 days; settings: in vivo, other, 336 h
[27] = test system: Zea mays; test: Toxicity in Zea mays GH2298 (maize) assessed as cob size at 50 g ai/ha applied shortly post-emergence at three to five-leaf stage using backpack sprayer (reference value: 307 g); settings: in vivo, other
[28] = test system: Zea mays; test: Toxicity in Zea mays GSS9299 (maize) assessed as cob size at 50 g ai/ha applied shortly post-emergence at three to five-leaf stage using backpack sprayer (reference value: 292 g); settings: in vivo, other
[29] = test system: Zea mays; test: Toxicity in Zea mays GH2547 (maize) assessed as marketable yield at 25 g ai/ha applied shortly post-emergence at three to five-leaf stage using backpack sprayer (reference value: 16.7 T/ha ); settings: in vivo, other
[30] = test system: Zea mays; test: Toxicity in Zea mays GG214 (maize) assessed as visible injury at 25 g ai/ha applied shortly post-emergence at three to five-leaf stage using backpack sprayer measured after 14 days; settings: in vivo, other, 336 h
[31] = test system: Zea mays; test: Toxicity in Zea mays GSS9299 (maize) assessed as visible injury at 50 g ai/ha applied shortly post-emergence at three to five-leaf stage using backpack sprayer measured after 7 days; settings: in vivo, other, 168 h
[32] = test system: Zea mays; test: Toxicity in Zea mays GH2684 (maize) assessed as visible injury at 25 g ai/ha applied shortly post-emergence at three to five-leaf stage using backpack sprayer measured after 7 days; settings: in vivo, other, 168 h
[33] = test system: Zea mays; test: Toxicity in Zea mays GH2684 (maize) assessed as marketable yield at 25 g ai/ha applied shortly post-emergence at three to five-leaf stage using backpack sprayer (reference value: 15.5 T/ha ); settings: in vivo, other

COc1cc(OC)nc(NC(=O)NS(=O)(=O)c2c(C(=O)O)c(Cl)nn2C)n1 [HALOSULFURON]
Activity [1]: 4% | Activity [2]: 77 cm | Activity [3]: 1% | Activity [4]: 0% | Activity [5]: 1% | Activity [6]: 75 cm | Activity [7]: 267 g | Crop_yield [8]: 15.7 tons/ha | Crop_yield [9]: 12.3 tons/ha | Activity [10]: 315 g | Crop_yield [11]: 13.3 tons/ha | Activity [12]: 2% | Activity [13]: 69 cm | Activity [14]: 2% | Activity [15]: 0% | Activity [16]: 0% | Activity [17]: 310 g | Activity [18]: 2% | Crop_yield [19]: 11.3 tons/ha | Activity [20]: 3% | Activity [21]: 77 cm | Activity [22]: 8% | Activity [23]: 301 g | Activity [24]: 273 g | Activity [25]: 387 g | Activity [26]: 1% | Activity [27]: 308 g | Activity [28]: 297 g | Crop_yield [29]: 16.2 tons/ha | Activity [30]: 0% | Activity [31]: 2% | Activity [32]: 4% | Crop_yield [33]: 15.5 tons/ha
